According to patent publication US20260285875A1, “INHIBITORS OF PARG” (858 Therapeutics, Inc., priority 2023, published 2026):

Biological target: T1, cellular PARG (Homo sapiens, UniProt Q86W56)
T1 construct: endogenous in cells; host or cells: HeLa
Test: Nuclear PAR accumulation assay (immunofluorescence high-content imaging, MMS-treated HeLa cells)
Assay type: cell-based
Settings: 1 hour compound then MMS 50 μg/mL for an additional hour
Summary of the method: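 HeLa cells pretreated with compound for 1 h at 37° C, then given 50 μg/mL MMS for another hour. After methanol fixation, PAR was immunostained with DAPI nuclear counterstain; per-nucleus intensity and percent PAR-positive cells were imaged at 20× (≥1,000 cells/well). IC50 from four-parameter logistic fit.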

T1 sequence (Q86W56 whole entry): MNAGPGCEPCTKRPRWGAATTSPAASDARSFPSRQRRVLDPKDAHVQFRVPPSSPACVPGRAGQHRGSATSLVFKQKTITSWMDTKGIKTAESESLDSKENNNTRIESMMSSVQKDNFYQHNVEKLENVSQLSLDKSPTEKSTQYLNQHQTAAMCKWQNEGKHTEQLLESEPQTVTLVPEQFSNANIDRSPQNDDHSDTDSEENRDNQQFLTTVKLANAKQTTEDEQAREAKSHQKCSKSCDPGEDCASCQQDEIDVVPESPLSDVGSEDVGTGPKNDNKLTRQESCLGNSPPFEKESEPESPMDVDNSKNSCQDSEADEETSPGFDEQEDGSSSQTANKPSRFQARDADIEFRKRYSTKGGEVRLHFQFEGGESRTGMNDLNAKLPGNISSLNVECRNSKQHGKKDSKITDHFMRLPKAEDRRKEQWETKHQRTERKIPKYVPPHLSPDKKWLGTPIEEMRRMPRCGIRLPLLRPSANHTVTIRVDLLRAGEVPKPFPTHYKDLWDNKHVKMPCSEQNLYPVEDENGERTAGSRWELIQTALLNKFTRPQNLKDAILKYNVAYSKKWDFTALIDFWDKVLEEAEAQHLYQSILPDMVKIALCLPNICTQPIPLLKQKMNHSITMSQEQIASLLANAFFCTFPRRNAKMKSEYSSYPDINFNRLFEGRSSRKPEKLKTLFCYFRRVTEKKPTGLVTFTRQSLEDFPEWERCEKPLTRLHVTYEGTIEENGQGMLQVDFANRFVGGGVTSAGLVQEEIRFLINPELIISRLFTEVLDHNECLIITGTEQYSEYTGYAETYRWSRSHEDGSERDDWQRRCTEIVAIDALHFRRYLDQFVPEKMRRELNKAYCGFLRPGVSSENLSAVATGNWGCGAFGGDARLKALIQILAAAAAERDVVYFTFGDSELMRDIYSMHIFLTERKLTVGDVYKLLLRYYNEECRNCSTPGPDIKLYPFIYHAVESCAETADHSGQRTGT

SMILES | IC50 [nM]
CN1C(=O)c2cc(S(=O)(=O)NC3(C)CC3)ccc2N2C1=NCC2C#Cc1cnsc1 (stereo not shown) [Example 179, 1-(isothiazol-4-ylethynyl)-4-methyl-N-(1-methylcyclopropyl)-5-oxo-1,2,4,5-tetrahydroimidazo[1,2-a]quinazoline-7-sulfonamide] | < 100
CCN1C(=O)c2cc(S(=O)(=O)NC3(C)CC3)ccc2N2C1=NC[C@H]2C#Cc1cc(CN(C)C)nn1C [Example 195, (R)-1-((3-((dimethylamino)methyl)-1-methyl-1H-pyrazol-5-yl)ethynyl)-4-ethyl-N-(1-methylcyclopropyl)-5-oxo-1,2,4,5-tetrahydroimidazo[1,2-a]quinazoline-7-sulfonamide] | < 100
C[C@@H]1CN=C2N(Cc3cn(C)nc3CC#N)C(=O)c3cc(S(=O)(=O)NC4(C)CC4)ccc3N21 [Example 243, (R)-4-((3-(cyanomethyl)-1-methyl-1H-pyrazol-4-yl)methyl)-1-methyl-N-(1-methylcyclopropyl)-5-oxo-1,2,4,5-tetrahydroimidazo[1,2-a]quinazoline-7-sulfonamide] | < 100
CNC(=O)c1ccc(-c2cc(S(=O)(=O)NC3(C)CC3)cc3c2N2C(=N[C@H]4CCC[C@H]42)N(C)C3=O)cn1 [Example 50, N-methyl-5-((7aS,10aR)-6-methyl-3-(N-(1-methylcyclopropyl)sulfamoyl)-5-oxo-6,7a,8,9,10,10a-hexahydro-5H-cyclopenta[4,5]imidazo[1,2-a]quinazolin-1-yl)picolinamide] | 100 to 1000
[2H]C([2H])(c1cnn(C)c1)N1C(=O)c2cc(S(=O)(=O)NC3(C)CC3)ccc2N2C1=N[C@H]1CNC[C@H]12 [Example 106, (7aS,10aR)-6-((1-methyl-1H-pyrazol-4-yl)methyl-d2)-N-(1-methylcyclopropyl)-5-oxo-6,7a,8,9,10,10a-hexahydro-5H-pyrrolo[3′,4′:4,5]imidazo[1,2-a]quinazoline-3-sulfonamide] | 100 to 1000
CN1CCC[C@@H]1C#C[C@@H]1CN=C2N(Cc3cnn(C)c3)C(=O)c3cc(S(=O)(=O)NC4(C)CC4)ccc3N21 [Example 256, (R)-4-((1-methyl-1H-pyrazol-4-yl)methyl)-N-(1-methylcyclopropyl)-1-(((R)-1-methylpyrrolidin-2-yl)ethynyl)-5-oxo-1,2,4,5-tetrahydroimidazo[1,2-a]quinazoline-7-sulfonamide] | < 100
CC(=O)NC[C@@H]1N=C2N(Cc3cnn(C)c3)C(=O)c3cc(S(=O)(=O)NC4(C)CC4)ccc3N2[C@@H]1C [Example 295, N-(((1R,2S)-1-methyl-4-((1-methyl-1H-pyrazol-4-yl)methyl)-7-(N-(1-methylcyclopropyl)sulfamoyl)-5-oxo-1,2,4,5-tetrahydroimidazo[1,2-a]quinazolin-2-yl)methyl)acetamide] | 100 to 1000
Cn1cc(CN2C(=O)c3cc(S(=O)(=O)NC4(C)CC4)cc(Cl)c3N3C2=NC[C@H]3C#CCN)cn1 [Example 103, (R)-1-(3-aminoprop-1-yn-1-yl)-9-chloro-4-((1-methyl-1H-pyrazol-4-yl)methyl)-N-(1-methylcyclopropyl)-5-oxo-1,2,4,5-tetrahydroimidazo[1,2-a]quinazoline-7-sulfonamide] | 100 to 1000
Cn1cc(CN2C(=O)c3cc(S(=O)(=O)NC4(C)CC4)ccc3N3C2=NC[C@H]3COc2ccn(C)n2)cn1 [Example 141, (S)-1-(((1-methyl-1H-pyrazol-3-yl)oxy)methyl)-4-((1-methyl-1H-pyrazol-4-yl)methyl)-N-(1-methylcyclopropyl)-5-oxo-1,2,4,5-tetrahydroimidazo[1,2-a]quinazoline-7-sulfonamide] | 100 to 1000
Cn1cc(CN2C(=O)c3cc(S(=O)(=O)NC4(C)CC4)cc(Br)c3N3CC(C)(C)N=C23)cn1 [Example 3, 9-bromo-2,2-dimethyl-4-((1-methyl-1H-pyrazol-4-yl)methyl)-N-(1-methylcyclopropyl)-5-oxo-1,2,4,5-tetrahydroimidazo[1,2-a]quinazoline-7-sulfonamide] | 100 to 1000
Cc1nn(C)cc1C#C[C@@H]1CN=C2N(CC3CC3)C(=O)c3cc(S(=O)(=O)NC4(C)CC4)ccc3N21 [Example 277, (R)-4-(cyclopropylmethyl)-1-((1,3-dimethyl-1H-pyrazol-4-yl)ethynyl)-N-(1-methylcyclopropyl)-5-oxo-1,2,4,5-tetrahydroimidazo[1,2-a]quinazoline-7-sulfonamide] | < 100
Cc1nnc(N2C3=NC[C@@H](C)N3c3ccc(S(=O)(=O)NC4(C)CC4)cc32)s1 [Example 84, (R)-3-methyl-9-(5-methyl-1,3,4-thiadiazol-2-yl)-N-(1-methylcyclopropyl)-2,9-dihydro-3H-benzo[d]imidazo[1,2-a]imidazole-7-sulfonamide] | 100 to 1000
CN1C(=O)c2cc(S(=O)(=O)NC3(C)CC3)ccc2N2C1=NCC2C#Cc1cnn(C)c(=O)c1 (stereo not shown) [Example 175, 4-methyl-1-((1-methyl-6-oxo-1,6-dihydropyridazin-4-yl)ethynyl)-N-(1-methylcyclopropyl)-5-oxo-1,2,4,5-tetrahydroimidazo[1,2-a]quinazoline-7-sulfonamide] | < 100
Cc1cc(C#C[C@@H]2CN=C3N(Cc4cnn(C)c4)C(=O)c4cc(S(=O)(=O)NC5(C)CC5)ccc4N32)ccn1 [Example 238, (R)-4-((1-methyl-1H-pyrazol-4-yl)methyl)-N-(1-methylcyclopropyl)-1-((2-methylpyridin-4-yl)ethynyl)-5-oxo-1,2,4,5-tetrahydroimidazo[1,2-a]quinazoline-7-sulfonamide] | < 100
Cc1cc(F)ccc1-c1cc(S(=O)(=O)NC2(C)CC2)cc2c1N1CC(C)(C)N=C1N(Cc1cnn(C)c1)C2=O [Example 25, 9-(4-fluoro-2-methylphenyl)-2,2-dimethyl-4-((1-methyl-1H-pyrazol-4-yl)methyl)-N-(1-methylcyclopropyl)-5-oxo-1,2,4,5-tetrahydroimidazo[1,2-a]quinazoline-7-sulfonamide] | < 100
[2H]C([2H])(c1cnn(C)c1)N1C(=O)c2cc(S(=O)(=O)NC3(C)CC3)ccc2N2C1=NC[C@H]2C#Cc1cnn(C)c1 [Example 97, (R)-1-((1-methyl-1H-pyrazol-4-yl)ethynyl)-4-((1-methyl-1H-pyrazol-4-yl)methyl-d2)-N-(1-methylcyclopropyl)-5-oxo-1,2,4,5-tetrahydroimidazo[1,2-a]quinazoline-7-sulfonamide] | < 100
C[C@@H]1CON=C2N(Cc3cnn(C)c3)C(=O)c3cc(S(=O)(=O)NC4(C)CC4)ccc3N21 [Example 219, (R)-1-methyl-5-((1-methyl-1H-pyrazol-4-yl)methyl)-N-(1-methylcyclopropyl)-6-oxo-1,2,5,6-tetrahydro-[1,2,4]oxadiazino[4,3-a]quinazoline-8-sulfonamide] | < 100
Cn1cc(CN2C(=O)c3cc(S(=O)(=O)NC4(C)CC4)ccc3N3C2=NC[C@H]3C#Cc2ncnn2C)cn1 [Example 196, (R)-1-((1-methyl-1H-1,2,4-triazol-5-yl)ethynyl)-4-((1-methyl-1H-pyrazol-4-yl)methyl)-N-(1-methylcyclopropyl)-5-oxo-1,2,4,5-tetrahydroimidazo[1,2-a]quinazoline-7-sulfonamide] | < 100
Cn1cc(CN2C(=O)c3cc(S(=O)(=O)NC4(C)CC4)ccc3N3C2=NCC3COc2cccc(C#N)c2)cn1 (stereo not shown) [Example 136, 1-((3-cyanophenoxy)methyl)-4-((1-methyl-1H-pyrazol-4-yl)methyl)-N-(1-methylcyclopropyl)-5-oxo-1,2,4,5-tetrahydroimidazo[1,2-a]quinazoline-7-sulfonamide] | < 100
